For test [1], the system named is human ovarian carcinoma cells (OVCAR-3). The experiment in a line: Cell proliferation, crystal violet method. Format: cell-based. To be noted: 60 μM; FIG. 11a, 11b. How it is done: (§1) The compound according to the invention, and in particular the synthetic quercetin derivatives described and illustrated herein were investigated in vitro by using human tumour cells and assessing their impact on the tumour proliferative capacity, with regard to the tumours described above. In particular, the following human tumour cell lines were assessed experimentally: 1) HCT116, colon adenocarcinoma cells; 2) H1299, lung adenocarcinoma cells; 3) A375, melanoma cells, and 4) A431, squamous skin cell carcinoma; 5) 786-0, renal carcinoma cells; 6) PC3, prostate carcinoma cells; 7) BT549, mammary carcinoma cells; 8) CAL27, tongue carcinoma cells (belonging to the head-and-neck carcinomas); 9) HepG2, hepatocellular carcinoma cells; 10) PANC-1, pancreas carcinoma cells; 11) T24, bladder carcinoma cells; 12) OVCAR-3, ovarian carcinoma cells. In addition, a normal human cell line, WS1 (skin fibroblasts) was also treated with the novel synthetic compounds.
(§2) Cell proliferation was quantified by the crystal violet method with a spectrophotometer. In short, after acquiring serial images (0, 24 and 48 hrs) with the EVOS XL Cell Imaging System microscope (Thermo Fisher Scientific), the cells imaged at 48 hrs were fixed with paraformaldehyde (4%) and stained with Crystal Violet (1%). Then, the specific absorbance (λ=590 nm) at 48 hrs was measured with a spectrophotometer (Infinite®200 PRO, Tecan). Data analysis was carried out by using ad-hoc Excel files for graphical representation and statistical processing (t-test). Moreover, the results obtained with Crystal Violet were confirmed by using another cell proliferation assessment method based on the real time cellular analyzer XCELLigence RTCA DP (ACEA Biosciences, Inc.). This tool allows cell growth to be monitored from electrical impedance-derived quantitative values (the so-called Cell Index) measured by tiny electrodes located at the base of the culture wells. Proliferation is monitored for several days (5-7) by setting a Cell Index per minute measure on the instrument. The data are analysed by processing various parameters calculated by the dedicated software, such as the cell duplication time, the slope and the Max Cell Index.
(§3) Cell proliferation was quantitated spectrophotometrically by the crystal violet method.

The next test relates to SCC cells (A431). The experiment in a line: Cell proliferation, crystal violet method. To be noted: 90 μM; FIG. 2a, 2b. It is filed as cell-based, human. How it is done:
as §2, with “The compound according to the invention, and in particular the synthetic quercetin derivatives described and illustrated herein were investigated in vitro by using human tumour cells and assessing their impact on the tumour proliferative capacity, with regard to the tumours described above. In particular, the following human tumour cell lines were assessed experimentally: 1) HCT116, colon adenocarcinoma cells; 2) H1299, lung adenocarcinoma cells; 3) A375, melanoma cells, and 4) A431, squamous skin cell carcinoma; 5) 786-0, renal carcinoma cells; 6) PC3, prostate carcinoma cells; 7) BT549, mammary carcinoma cells; 8) CAL27, tongue carcinoma cells (belonging to the head-and-neck carcinomas); 9) HepG2, hepatocellular carcinoma cells; 10) PANC-1, pancreas carcinoma cells; 11) T24, bladder carcinoma cells; 12) OVCAR-3, ovarian carcinoma cells. In addition, a normal human cell line, WS1 (skin fibroblasts) was also treated with the novel synthetic compounds. Cell proliferation” for “Cell proliferation”, “Cell Index. […] Cell proliferation was quantitated spectrophotometrically by the crystal violet method.” for “Cell Index.”

The subject of test [2] is human bladder carcinoma cells (T24). The test can be described thus: Cell proliferation, crystal violet method. To be noted: 80 μM; FIG. 10a, 10b. It is filed as cell-based. How it is done:
as §2, with “The compound according to the invention, and in particular the synthetic quercetin derivatives described and illustrated herein were investigated in vitro by using human tumour cells and assessing their impact on the tumour proliferative capacity, with regard to the tumours described above. In particular, the following human tumour cell lines were assessed experimentally: 1) HCT116, colon adenocarcinoma cells; 2) H1299, lung adenocarcinoma cells; 3) A375, melanoma cells, and 4) A431, squamous skin cell carcinoma; 5) 786-0, renal carcinoma cells; 6) PC3, prostate carcinoma cells; 7) BT549, mammary carcinoma cells; 8) CAL27, tongue carcinoma cells (belonging to the head-and-neck carcinomas); 9) HepG2, hepatocellular carcinoma cells; 10) PANC-1, pancreas carcinoma cells; 11) T24, bladder carcinoma cells; 12) OVCAR-3, ovarian carcinoma cells. In addition, a normal human cell line, WS1 (skin fibroblasts) was also treated with the novel synthetic compounds. Cell proliferation” for “Cell proliferation”, “Cell Index. […] Cell proliferation was quantitated spectrophotometrically by the crystal violet method.” for “Cell Index.”

Test [3] has as its system human pancreatic carcinoma cells (PANC-1). The test can be described thus: Cell proliferation, crystal violet method. Format: cell-based. To be noted: 80 μM; FIG. 9a, 9b. The procedure:
as §2, with “The compound according to the invention, and in particular the synthetic quercetin derivatives described and illustrated herein were investigated in vitro by using human tumour cells and assessing their impact on the tumour proliferative capacity, with regard to the tumours described above. In particular, the following human tumour cell lines were assessed experimentally: 1) HCT116, colon adenocarcinoma cells; 2) H1299, lung adenocarcinoma cells; 3) A375, melanoma cells, and 4) A431, squamous skin cell carcinoma; 5) 786-0, renal carcinoma cells; 6) PC3, prostate carcinoma cells; 7) BT549, mammary carcinoma cells; 8) CAL27, tongue carcinoma cells (belonging to the head-and-neck carcinomas); 9) HepG2, hepatocellular carcinoma cells; 10) PANC-1, pancreas carcinoma cells; 11) T24, bladder carcinoma cells; 12) OVCAR-3, ovarian carcinoma cells. In addition, a normal human cell line, WS1 (skin fibroblasts) was also treated with the novel synthetic compounds. Cell proliferation” for “Cell proliferation”, “Cell Index. […] Cell proliferation was quantitated spectrophotometrically by the crystal violet method.” for “Cell Index.”

The test system of test [4] is human prostate carcinoma cells (PC3). The test can be described thus: Cell proliferation, crystal violet method. To be noted: 80 μM; FIG. 5a, 5b. It is filed as cell-based. The procedure: as §2, with “The compound according to the invention, and in particular the synthetic quercetin derivatives described and illustrated herein were investigated in vitro by using human tumour cells and assessing their impact on the tumour proliferative capacity, with regard to the tumours described above. In particular, the following human tumour cell lines were assessed experimentally: 1) HCT116, colon adenocarcinoma cells; 2) H1299, lung adenocarcinoma cells; 3) A375, melanoma cells, and 4) A431, squamous skin cell carcinoma; 5) 786-0, renal carcinoma cells; 6) PC3, prostate carcinoma cells; 7) BT549, mammary carcinoma cells; 8) CAL27, tongue carcinoma cells (belonging to the head-and-neck carcinomas); 9) HepG2, hepatocellular carcinoma cells; 10) PANC-1, pancreas carcinoma cells; 11) T24, bladder carcinoma cells; 12) OVCAR-3, ovarian carcinoma cells. In addition, a normal human cell line, WS1 (skin fibroblasts) was also treated with the novel synthetic compounds. Cell proliferation” for “Cell proliferation”, “Cell Index. […] Cell proliferation was quantitated spectrophotometrically by the crystal violet method.” for “Cell Index.”

Test [5] has as its system human renal carcinoma cells (786-0). The test can be described thus: Cell proliferation, crystal violet method. Format: cell-based. To be noted: 80 μM; FIG. 4a, 4b. How it is done:
as §2, with “The compound according to the invention, and in particular the synthetic quercetin derivatives described and illustrated herein were investigated in vitro by using human tumour cells and assessing their impact on the tumour proliferative capacity, with regard to the tumours described above. In particular, the following human tumour cell lines were assessed experimentally: 1) HCT116, colon adenocarcinoma cells; 2) H1299, lung adenocarcinoma cells; 3) A375, melanoma cells, and 4) A431, squamous skin cell carcinoma; 5) 786-0, renal carcinoma cells; 6) PC3, prostate carcinoma cells; 7) BT549, mammary carcinoma cells; 8) CAL27, tongue carcinoma cells (belonging to the head-and-neck carcinomas); 9) HepG2, hepatocellular carcinoma cells; 10) PANC-1, pancreas carcinoma cells; 11) T24, bladder carcinoma cells; 12) OVCAR-3, ovarian carcinoma cells. In addition, a normal human cell line, WS1 (skin fibroblasts) was also treated with the novel synthetic compounds. Cell proliferation” for “Cell proliferation”, “Cell Index. […] Cell proliferation was quantitated spectrophotometrically by the crystal violet method.” for “Cell Index.”

Test [6] deals with human skin fibroblasts (WS1). The experiment in a line: Cell proliferation of normal cells, crystal violet method. It is filed as cell-based. To be noted: at the indicated concentrations (not given); FIG. 17. The procedure: The compound according to the invention, and in particular the synthetic quercetin derivatives described and illustrated herein were investigated in vitro by using human tumour cells and assessing their impact on the tumour proliferative capacity, with regard to the tumours described above. In particular, the following human tumour cell lines were assessed experimentally: 1) HCT116, colon adenocarcinoma cells; 2) H1299, lung adenocarcinoma cells; 3) A375, melanoma cells, and 4) A431, squamous skin cell carcinoma; 5) 786-0, renal carcinoma cells; 6) PC3, prostate carcinoma cells; 7) BT549, mammary carcinoma cells; 8) CAL27, tongue carcinoma cells (belonging to the head-and-neck carcinomas); 9) HepG2, hepatocellular carcinoma cells; 10) PANC-1, pancreas carcinoma cells; 11) T24, bladder carcinoma cells; 12) OVCAR-3, ovarian carcinoma cells. In addition, a normal human cell line, WS1 (skin fibroblasts) was also treated with the novel synthetic compounds. Cell proliferation was quantified by the crystal violet method with a spectrophotometer. In short, after acquiring serial images (0, 24 and 48 hrs) with the EVOS XL Cell Imaging System microscope (Thermo Fisher Scientific), the cells imaged at 48 hrs were fixed with paraformaldehyde (4%) and stained with Crystal Violet (1%). Then, the specific absorbance (λ=590 nm) at 48 hrs was measured with a spectrophotometer (Infinite®200 PRO, Tecan). Data analysis was carried out by using ad-hoc Excel files for graphical representation and statistical processing (t-test). […] This tool allows cell growth to be monitored from electrical impedance-derived quantitative values (the so-called Cell Index) measured by tiny electrodes located at the base of the culture wells. Proliferation is monitored for several days (5-7) by setting a Cell Index per minute measure on the instrument. The data are analysed by processing various parameters calculated by the dedicated software, such as the cell duplication time, the slope and the Max Cell Index.

In test [7] the test system is human melanoma cells (A375). The experiment in a line: Cell cycle progression, propidium iodide method, cytofluorimeter. It is filed as cell-based. To be noted: 24 hrs; at the respective anti-proliferative IC50s; FIG. 19. How it is done:
Progression through the tumour cell cycle was assessed by the propidium iodide method and quantification of the cell DNA content with a cytofluorimeter. Briefly, after treatment (in duplicate) with the test compounds (24 hrs), the tumour cells were washed (with PBS), detached with trypsin-EDTA and pelleted by centrifugation (125 g for 6 min). The cells were then fixed in ethanol (70%) and stored in the freezer (−20° C.) for 1-3 days. After further washing (PBS) and treatment with RNAse (50 ug/ml), the cells were contacted (on ice in the dark; 30 min) with propidium iodide (50 μg/ml). FL2 and FL3 cytofluorimeter readings analysed approximately 50,000 cells (1 μl/second) per sample. Statistical analysis and graphical representation were performed by using t-tests and preset Excel property files.

For test [8], the system named is human colon carcinoma cells (HCT116). The test can be described thus: Intracellular ROS levels, DCFH2-DA probe. It is filed as cell-based. To be noted: 2 hrs of treatment; at the respective anti-proliferative IC50s; DCF fluorescence in A.U.; FIG. 22 left. How it is done: Intracellular ROS levels were measured in tumour cells by using the probe 2,7-dichlorodihydrofluorescein diacetate (DCFH2-DA) and a fluorescence spectrophotometer. DCFH2-DA diffuses readily through the cell membrane into the cytosolic space of the cell where it is hydrolyzed by intracellular esterases into the non-permeable DCFH2 product. DCFH2 oxidation by intracellular ROS (mainly H2O2, HO·, ROO·, NO· and ONOO) results in the production of intracellular fluorescent DCF, whose concentration is directly proportional to the levels of ROS in the cell. […] All the experiments were repeated at least 3 times. Data analysis was carried out with GraphPad Prism 6 for graphical representation and statistical processing (1-way ANOVA test).

Test [9] has the same test system. The test can be described thus: Cell proliferation, crystal violet method. Format: cell-based. The procedure:
as §1, §2, §3

The test system of test [10] is human melanoma cells (A375). The test can be described thus: Cell proliferation, crystal violet method. Format: cell-based. The procedure: as §1, §2, §3

For `O=c1c(O)c(-c2ccc(O)c(O)c2)oc2cc(O)cc(O)c12` [quercetin, Quercetin, reference compound], the “OVCAR-3 cell growth vs vehicle control” value in test [1] is recorded as “has no effect”. Besides, the “A431 cell growth vs vehicle control” value in the test on SCC cells (A431) is reported as “has no effect”. Also, the “T24 cell growth vs vehicle control” value in [2] is “has no effect”. The “PANC-1 cell growth vs vehicle control” value in test [3] is “has no effect”. Further, the “PC3 cell growth vs vehicle control” value in test [4] is given as “modest anti-proliferative effects”. Further, the “786-0 cell growth vs vehicle control” value in test [5] was “has no effect”. Besides, the “proliferation of normal human skin fibroblasts (WS1) vs vehicle control” value in test [6] was “do not disrupt”. In addition, in [7], the “halt of A375 tumour cells in S and/or G2 of the cell cycle” value was “significantly halt”. Also, the “intracellular ROS levels in HCT116 cells” value in [8] is “has no effect”.

For `O=c1cc(-c2ccc(O)cc2)oc2cc(O)cc(O)c12` [apigenin], the “proliferation of normal human skin fibroblasts (WS1) vs vehicle control” value in test [6] is “significantly inhibits”.

For the compound `O=C(NCCOCCOc1c(-c2ccc(O)c(O)c2)oc2cc(O)cc(O)c2c1=O)c1ccc(-c2ccc(C(=O)NCCOCCOc3c(-c4ccc(O)c(O)c4)oc4cc(O)cc(O)c4c3=O)cc2)cc1` [Compound 19b], the “HCT116 cell growth vs vehicle control” value in [9] (10 μM and 30 μM, FIG. 15) is “significantly inhibited”. In addition, the IC50 stood at 5.51 µM in test [9] (Homo sapiens, HCT-116, crystal violet, spectrophotometer, read-out: IC50 anti-proliferative effect, CRC (HCT116)) and 9.48 µM in [10] (Homo sapiens, A-375, crystal violet, spectrophotometer, read-out: IC50 anti-proliferative effect, Melanoma (A375)). In addition, the “A375 cell growth vs vehicle control” value in test [10] (10 μM and 30 μM, FIG. 14) is listed as “significantly inhibited”. Also, the “intracellular ROS levels in HCT116 cells” value in [8] is recorded as “significantly raise”.

For orientation: IC50 means the concentration that gives 50% inhibition.

The values above are taken from US12059400B2, “Medical compound” (VERA SALUS RICERCA S.R.L., priority 2017, dated 2024).
